Experimental data reported in PubChem BioAssay AID2060501 (Molecular Pharmacology Branch, DTP, NCI, 2025).

System: 282377-053-R-J1-PDC complex spheroids, viability
Test: Anticancer human tumor 282377-053-R-J1-PDC patient-derived colon adenocarcinoma cell line growth inhibition [GQUAD]
Details: for IC50: curve of first compound; for viability, T/C: stronger effect = lower value
In short: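 Tumor cells were grown as complex spheroids with HUVEC endothelial cells and mesenchymal stem cells as stroma. G-quadruplex stabilizers were combined with targeted agents over half-log dilutions from near the clinical Cmax, or from 10 microM.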
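Note: spheroids exposed to compounds for 7 days before readout.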
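Throughout, for viability, T/C: percent of vehicle DMSO control viability with 100% = untreated-like growth.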

CCCS(=O)(=O)Nc1ccc(F)c(C(=O)c2c[nH]c3ncc(-c4ccc(Cl)cc4)cc23)c1F + Cc1cnc(CNC(=O)c2c(=O)c3ccc(N4CCCN(C)CC4)nc3n3c2sc2ccccc23)cn1
IC50 (second compound 0.0316 µM): 2280 nM
IC50 (second compound 0.1 µM): 1480 nM
IC50 (second compound 0.316 µM): 393 nM
IC50 (second compound 1 µM): 34.9 nM
IC50 (second compound 3.16 µM): < 31.6 nM
IC50 (second compound 10 µM): < 31.6 nM
viability, T/C (second compound 0.0316 µM, first compound 0.0316 µM): 89.5%
viability, T/C (second compound 0.0316 µM, first compound 0.1 µM): 53.1%
viability, T/C (second compound 0.0316 µM, first compound 0.316 µM): 72%
viability, T/C (second compound 0.0316 µM, first compound 1 µM): 52.7%
viability, T/C (second compound 0.0316 µM, first compound 3.16 µM): 54.9%
viability, T/C (second compound 0.0316 µM, first compound 10 µM): 11.8%
viability, T/C (second compound 0.1 µM, first compound 0.0316 µM): 77.5%
viability, T/C (second compound 0.1 µM, first compound 0.1 µM): 63.9%
viability, T/C (second compound 0.1 µM, first compound 0.316 µM): 56.6%
viability, T/C (second compound 0.1 µM, first compound 1 µM): 55.7%
viability, T/C (second compound 0.1 µM, first compound 3.16 µM): 45.4%
viability, T/C (second compound 0.1 µM, first compound 10 µM): 11.6%
viability, T/C (second compound 0.316 µM, first compound 0.0316 µM): 64.5%
viability, T/C (second compound 0.316 µM, first compound 0.1 µM): 57%
viability, T/C (second compound 0.316 µM, first compound 0.316 µM): 46.9%
viability, T/C (second compound 0.316 µM, first compound 1 µM): 39.5%
viability, T/C (second compound 0.316 µM, first compound 3.16 µM): 41.4%
viability, T/C (second compound 0.316 µM, first compound 10 µM): 11.3%
viability, T/C (second compound 1 µM, first compound 0.0316 µM): 52.6%
viability, T/C (second compound 1 µM, first compound 0.1 µM): 44.6%
viability, T/C (second compound 1 µM, first compound 0.316 µM): 38.3%
viability, T/C (second compound 1 µM, first compound 1 µM): 30.3%
viability, T/C (second compound 1 µM, first compound 3.16 µM): 34.4%
viability, T/C (second compound 1 µM, first compound 10 µM): 9.31%
viability, T/C (second compound 3.16 µM, first compound 0.0316 µM): 39.5%
viability, T/C (second compound 3.16 µM, first compound 0.1 µM): 29.4%
viability, T/C (second compound 3.16 µM, first compound 0.316 µM): 28.8%
viability, T/C (second compound 3.16 µM, first compound 1 µM): 25.9%
viability, T/C (second compound 3.16 µM, first compound 3.16 µM): 30.4%
viability, T/C (second compound 3.16 µM, first compound 10 µM): 0.11%
viability, T/C (second compound 10 µM, first compound 0.0316 µM): 31.3%
viability, T/C (second compound 10 µM, first compound 0.1 µM): 31.3%
viability, T/C (second compound 10 µM, first compound 0.316 µM): 22.9%
viability, T/C (second compound 10 µM, first compound 1 µM): 23.3%
viability, T/C (second compound 10 µM, first compound 3.16 µM): 7.59%
viability, T/C (second compound 10 µM, first compound 10 µM): 0.33%
